# Data: patent publication US20230147942A1, “PHARMACEUTICAL COMPOSITION COMPRISING NEW LACTOBACILLUS PLANTARUM KC3 STRAIN AND LEONURUS JAPONICUS EXTRACT AS ACTIVE INGREDIENTS FOR PREVENTING OR TREATING RESPIRATORY DISEASE AND USE THEREOF” (KT&G CORPORATION, priority 2020, published 2023)
# Experiments:
# IL-17A = experiment: Expression level of inflammation factor in BAL fluid (ELISA); assay type: in vivo, mouse
# Procedure: (§1) BALB/c male mice (7-week-old, 20 g to 25 g, Orient Bio) were divided into groups of 6 mice, and as assigned to 6 mice in each group, and Alum was diluted in components of air pollutants, i.e., 10 mg/ml of coal combustible materials, 10 mg/ml of fly ash, and 5 mg/ml of diesel exhaust particle (DEP) to have a final concentration of 1% so that a final concentration of each component was 1.5 mg/ml for coal combustible material/fly ash and 5 mg/ml for DEP in a mixture. Then, to all groups except for a normal group, the mixture was directly injected into the airway and nose of the experimental animals by 50 pl each on the 4th, 7th and 10th says of the experiment.
# (§2) For a positive control group treated with dexamethasone (Sigma D2915), administed at 3 mg/kg BW of the mouse model, the Lactobacillus plantarum KC3 strain (KC3) was diluted at a concentration of 1×10^9CFU/cell (about 2 mg/kg BW), the Leonurus japonicus extract was diluted in distilled water at a dose of 100 mg/kg of BW, and then orally administered at a dose of 300 pl every day (for 11 days). For a mixed group including the KC3 strain and the Leonurus japonicus extract, the solution was mixed and diluted at a ratio of 1:1 by the dry weight as in Examples above, and then orally administered at a dose of 300 pl every day (for 11 days) (the cell amount in the KC3 included in the mixture was 0.5×10^9 CFU/cell, and the dose of the Leonurus japonicus extract was set at 50 mg/kg BW). The oral administration was performed at a dose of 300 μl per mouse, and an autopsy was performed on the 12th day after the start of the experiment to recover the BAL solution.
# (§3) An experiment was carried out to confirm whether the expression level of inflammation factors in the BAL fluid can be lowered, when treated with the Lactobacillus plantarum KC3 strain, the Leonurus japonicus extract, or the mixture thereof.
# (§4) The experiment was carried out in the same manner as in Experimental Example 1-3, except that the number of cells in BAL fluid was measured. Instead of measuring the number of cells, ELISA was performed to measure the expression level of respiratory inflammation factors, such as IL-17A, TNF-α, and CXCL-1, expressed in BAL fluid. In detail, IL-17A antibodies (M1700, R&D Systems, Minneapolis, USA), TNF-α antibodies (MTA00B, R&D Systems, Minneapolis, USA), and CXCL-1 antibodies (MKCOOB, R&D Systems, Minneapolis, USA) were diluted with a buffer solution, coated microwells, and then cultured at 4° C. for 16 hours. Each well was washed with a buffer solution three times, and 10-fold diluted serum was dispensed at 100 μl per well. After being left at room temperature for 1 hour, the wells were washed twice. Then, 100 μl of Avidin-HRP-conjugated antibodies (DY007, R&D Systems, Minneapolis, USA) was treated thereon, and the wells were left again at room temperature for 1 hour, followed by washing again.
# (§5) Tetramethylbenzidine (TMB) base solution (DY007, R&D Systems, Minneapolis, USA) was dispensed at 100 μl per well, and the well plate was left in the dark for 30 minutes. After 50 μl of a stopping solution (DY007, R&D Systems, Minneapolis, USA) was treated thereon, absorbance of the cells was measured at 450 nm.
# TNF-α = experiment: as above; assay type: in vivo, mouse
# Procedure: as §1, §2, §3, §4, §5
# CXCL-1 = experiment: as above; assay type: in vivo, mouse
# Procedure: as §1, §2, §3, §4, §5
# [1] = system: total number of cells in BAL fluid; experiment: Total number of cells in BAL fluid, mouse model having respiratory damage caused by air pollutants; assay type: in vivo
# Procedure: as §1
# (§6) For a positive control group treated with dexamethasone (Sigma D2915), administed at 3 mg/kg BW of the mouse model, the Lactobacillus plantarum KC3 strain (KC3) was diluted at a concentration of 1×10^9CFU/cell (about 2 mg/kg BW), the Leonurus japonicus extract was diluted in distilled water at a dose of 100 mg/kg of BW, and then orally administered at a dose of 300 pl every day (for 11 days). […]
# [2] = system: symmetric dimethylarginine (SDMA); experiment: Measurement of SDMA as COPD biomarker in blood (ELISA); assay type: in vivo, mouse
# Procedure: as §1, §6
# After being left at room temperature for 1 hour, the wells were washed twice. […] After 50 μl of a stopping solution (DY007, R&D Systems, Minneapolis, USA) was treated thereon, absorbance of the cells was measured at 450 nm. […]
# neutrophils = experiment: Ratio of number of neutrophils to total number of cells in BAL fluid (Diff-Qick staining); assay type: in vivo, mouse
# Procedure: as §1, §6
# [3] = BALB/c mice, air pollutant-induced, oral daily 11 days, dexamethasone 3 mg/kg, KC3 1×10^9 CFU, Leo 100 mg/kg, mixture 0.5×10^9 CFU + 50 mg/kg
# [4] = BALB/c mice, air pollutant-induced, oral daily 11 days, BAL day 12, dexamethasone 3 mg/kg, KC3 1×10^9 CFU, Leo 100 mg/kg, mixture 0.5×10^9 CFU + 50 mg/kg
smiles,measurement,setting,value
"C[C@@H]1C[C@H]2[C@@H]3CCC4=CC(=O)C=C[C@]4(C)[C@@]3(F)[C@@H](O)C[C@]2(C)[C@@]1(O)C(=O)CO [Positive control group, dexamethasone]",IL-17A Concentration,IL-17A; [3],19.7 ± 6.3 pg/mL
same,IL-17A inhibition rate (%) based on induced group,IL-17A; same dosing,(41%)
same,TNF-α Concentration,TNF-α; [3],64.5 ± 7.7 pg/mL
same,TNF-α inhibition rate (%) based on induced group,TNF-α; same dosing,(46%)
same,CXCL-1 Concentration,CXCL-1; [3],122 ± 12.4 pg/mL
same,CXCL-1 inhibition rate (%) based on induced group,CXCL-1; same dosing,(39%)
same,Total number of BAL cells (×10^4 cells/ml),[1]; [4],71.2 ± 8.3 ×10^4 cells/ml
same,"Inhibition rate (based on induced group), total BAL cells","[1]; same dosing as total BAL cells, based on induced group",54%
same,SDMA level (μg/mL) in serum,[2]; [3],10.1 ± 1.9 µg/mL
same,"Inhibition rate (based on induced group), SDMA","[2]; serum, same dosing",41%
same,Ratio of number of neutrophils to total number of BAL cells (400X),neutrophils; [4],35.5 ± 6.1
same,"Inhibition rate (based on induced group), neutrophil ratio","neutrophils; same dosing, based on induced group",50%
